Assay results taken from ChEMBL document CHEMBL1201862, “PubChem BioAssay data set” (2004).
Active and inactive are the calls of the source.

Assays:
[1] = molecular target: T1, Oxysterols receptor LXR-beta (Homo sapiens, UniProt P55055); assay: LXR agonists, Gal4 luciferase reporter, dose response, counter-screen for ssDAF-12 agonist project, cell-based, luminescence, HEK293, S. stercoralis campaign (AID 720737); format: functional; conditions: read-out: IC50 (the source's name)
T1 sequence (P55055 whole entry): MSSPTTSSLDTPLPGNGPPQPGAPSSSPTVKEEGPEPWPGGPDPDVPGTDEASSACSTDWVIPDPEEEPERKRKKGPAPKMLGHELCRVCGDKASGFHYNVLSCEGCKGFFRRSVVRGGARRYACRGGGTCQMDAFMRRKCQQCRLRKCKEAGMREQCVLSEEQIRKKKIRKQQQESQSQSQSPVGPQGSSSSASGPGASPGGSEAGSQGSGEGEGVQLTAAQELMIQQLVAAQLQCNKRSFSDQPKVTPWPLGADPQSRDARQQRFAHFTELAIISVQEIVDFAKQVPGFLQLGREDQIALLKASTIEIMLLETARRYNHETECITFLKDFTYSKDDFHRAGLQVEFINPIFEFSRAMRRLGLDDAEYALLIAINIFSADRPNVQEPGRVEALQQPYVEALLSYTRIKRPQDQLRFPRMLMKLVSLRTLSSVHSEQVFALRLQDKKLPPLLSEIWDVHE

[2] = Luminescence-based cell-based high throughput dose response assay to identify activators of the DAF-12 from the parasite S. stercoralis (ssDAF-12).; format: functional
[3] = molecular target: T1, Oxysterols receptor LXR-beta; format: functional, cell-based
Aminopeptidase N = molecular target: T2, Aminopeptidase N (Plasmodium falciparum FcB1/Columbia, UniProt O96935); assay: malaria alanyl aminopeptidase activity blockers – biochemical, fluorogenic H-Leu-NHMec substrate, 1536-well (AID 1445); parameters: species or system Plasmodium falciparum 3D7, 3D7
T2 sequence (O96935 whole entry): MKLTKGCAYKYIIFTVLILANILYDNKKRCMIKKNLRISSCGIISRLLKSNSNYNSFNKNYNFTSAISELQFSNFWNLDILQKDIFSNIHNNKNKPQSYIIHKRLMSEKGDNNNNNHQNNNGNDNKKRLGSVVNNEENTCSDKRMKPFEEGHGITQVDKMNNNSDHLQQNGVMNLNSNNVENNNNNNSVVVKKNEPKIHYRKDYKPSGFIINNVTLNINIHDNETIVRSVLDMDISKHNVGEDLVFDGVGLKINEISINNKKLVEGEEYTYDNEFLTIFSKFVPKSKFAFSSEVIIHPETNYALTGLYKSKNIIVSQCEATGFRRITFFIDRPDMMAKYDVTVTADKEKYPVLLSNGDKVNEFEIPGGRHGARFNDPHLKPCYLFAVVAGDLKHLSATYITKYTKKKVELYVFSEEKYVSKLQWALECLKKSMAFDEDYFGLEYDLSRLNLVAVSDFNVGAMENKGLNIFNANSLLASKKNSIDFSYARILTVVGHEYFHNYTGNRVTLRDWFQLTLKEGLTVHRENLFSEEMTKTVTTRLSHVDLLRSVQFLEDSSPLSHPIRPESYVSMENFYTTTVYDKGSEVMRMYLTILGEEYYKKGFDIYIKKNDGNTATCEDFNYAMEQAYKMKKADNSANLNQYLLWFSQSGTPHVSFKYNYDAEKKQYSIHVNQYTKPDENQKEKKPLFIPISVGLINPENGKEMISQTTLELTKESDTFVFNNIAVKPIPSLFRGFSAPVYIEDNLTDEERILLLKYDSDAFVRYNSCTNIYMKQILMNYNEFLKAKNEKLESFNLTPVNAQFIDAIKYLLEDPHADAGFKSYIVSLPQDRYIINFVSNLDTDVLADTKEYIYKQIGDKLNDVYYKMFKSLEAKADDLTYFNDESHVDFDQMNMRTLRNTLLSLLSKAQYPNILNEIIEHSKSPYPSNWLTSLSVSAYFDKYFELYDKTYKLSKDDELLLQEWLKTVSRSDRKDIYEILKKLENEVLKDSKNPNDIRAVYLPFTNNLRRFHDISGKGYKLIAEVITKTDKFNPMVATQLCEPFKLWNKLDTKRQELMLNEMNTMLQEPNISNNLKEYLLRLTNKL

Cytochrome P450 2C9 = Cytochrome P450 2C9 (Homo sapiens, UniProt P11712); conditions: Potency
Trypsin = Trypsin (Sus scrofa, UniProt P00761); assay: trypsin protease activity blockade – biochemical, quenched peptide fluorescence, cherry-pick, selectivity assay for Rce1 protease inhibitor project, dose response (AID 488789)
Estrogen receptor beta = Estrogen receptor beta (Homo sapiens, UniProt Q92731);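 further: recombinant ER-beta bound to coactivator SRC1 peptide in presence of estradiol agonist; inhibitors block coactivator peptide binding and lower the FRET signal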
Estrogen receptor = molecular target: T3, Estrogen receptor (Homo sapiens, UniProt P03372);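 further: potency for inhibiting coactivator peptide recruitment to the receptor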
T3 sequence (P03372 whole entry): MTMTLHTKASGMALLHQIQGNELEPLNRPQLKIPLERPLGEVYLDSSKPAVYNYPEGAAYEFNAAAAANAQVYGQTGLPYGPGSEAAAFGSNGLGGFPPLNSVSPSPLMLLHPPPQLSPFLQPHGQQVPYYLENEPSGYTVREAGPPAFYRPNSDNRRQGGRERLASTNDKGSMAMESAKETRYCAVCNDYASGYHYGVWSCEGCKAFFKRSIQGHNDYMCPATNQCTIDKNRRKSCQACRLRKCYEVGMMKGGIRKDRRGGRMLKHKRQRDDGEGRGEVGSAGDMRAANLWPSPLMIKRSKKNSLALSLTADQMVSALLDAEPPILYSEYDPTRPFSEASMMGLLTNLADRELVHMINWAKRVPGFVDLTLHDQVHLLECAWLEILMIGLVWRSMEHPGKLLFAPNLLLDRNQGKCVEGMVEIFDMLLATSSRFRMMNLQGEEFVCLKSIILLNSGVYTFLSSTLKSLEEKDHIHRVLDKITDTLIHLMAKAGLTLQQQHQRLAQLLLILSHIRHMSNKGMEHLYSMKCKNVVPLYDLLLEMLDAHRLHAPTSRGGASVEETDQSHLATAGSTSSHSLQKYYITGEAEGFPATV

[4] = molecular target: T4, Alkaline phosphatase, tissue-nonspecific isozyme (Homo sapiens, UniProt P05186); assay: potency against alkaline phosphatase TNAP – biochemical, luminescent, dose response, SAR follow-up (AID 1056)
T4 sequence (P05186 whole entry): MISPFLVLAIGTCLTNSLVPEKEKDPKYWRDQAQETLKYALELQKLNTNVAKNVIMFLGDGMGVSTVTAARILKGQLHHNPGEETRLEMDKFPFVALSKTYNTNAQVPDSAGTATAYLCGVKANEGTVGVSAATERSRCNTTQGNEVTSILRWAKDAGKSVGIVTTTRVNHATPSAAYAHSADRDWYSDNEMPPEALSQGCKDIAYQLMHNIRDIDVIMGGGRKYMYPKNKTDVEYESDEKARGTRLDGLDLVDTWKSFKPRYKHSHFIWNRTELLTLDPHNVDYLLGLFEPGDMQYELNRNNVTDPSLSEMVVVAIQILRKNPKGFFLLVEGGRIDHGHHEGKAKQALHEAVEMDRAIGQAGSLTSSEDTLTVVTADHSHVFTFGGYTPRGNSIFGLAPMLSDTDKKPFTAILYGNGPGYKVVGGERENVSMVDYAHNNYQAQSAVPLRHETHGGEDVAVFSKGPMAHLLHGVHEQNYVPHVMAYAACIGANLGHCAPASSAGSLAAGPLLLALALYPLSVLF

[5] = molecular target: Glyceraldehyde-3-phosphate dehydrogenase (Homo sapiens, UniProt P04406)
Paired box protein Pax-8 = Paired box protein Pax-8 (Homo sapiens, UniProt Q06710); assay: PAX8 transcriptional activity inhibition in RMG-I – RMG-I cells, luciferase, cherry-pick, dose response (AID 687027); format: functional, cell-based;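 further: luciferase reporter driven by Pax8 target thyroperoxidase promoter measured by SteadyGlo luminescence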
[6] = molecular target: T5, Mannose-6-phosphate isomerase (Homo sapiens, UniProt P34949); assay: MPI inhibition at elevated mannose 6-phosphate – biochemical, fluorescence intensity, high mannose 6-phosphate, primary screen (AID 1220)
T5 sequence (P34949 whole entry): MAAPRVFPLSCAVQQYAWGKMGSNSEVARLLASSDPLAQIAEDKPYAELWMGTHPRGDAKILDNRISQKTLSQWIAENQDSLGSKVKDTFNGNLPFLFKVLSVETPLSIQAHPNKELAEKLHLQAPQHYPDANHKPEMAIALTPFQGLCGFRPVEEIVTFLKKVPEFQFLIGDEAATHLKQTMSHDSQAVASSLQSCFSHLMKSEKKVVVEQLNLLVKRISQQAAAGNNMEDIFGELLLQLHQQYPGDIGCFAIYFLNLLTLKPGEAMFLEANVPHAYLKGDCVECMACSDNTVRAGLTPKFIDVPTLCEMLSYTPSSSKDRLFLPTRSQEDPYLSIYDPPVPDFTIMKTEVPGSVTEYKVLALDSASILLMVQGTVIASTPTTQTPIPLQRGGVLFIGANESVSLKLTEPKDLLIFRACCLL

[7] = fluconazole-exposed Candida albicans growth modulators – fluorescence, retest, confirmation (AID 2467); format: functional, cell-based
[8] = NIH-3T3 fibroblast cytotoxicity, dose response, cytotoxicity control, cell-based, fluorescence, Alamar Blue, secondary assay (AID 2327); format: functional;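 further: NIH-3T3 mouse fibroblasts cultured with fluconazole at 8 µg/mL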
[9] = molecular target: T6, Heat shock factor protein 1 (Mus musculus, UniProt P38532); assay: decrease of HSF1-responsive luciferase luminescence – cell-based, NIH3T3, dose retest, confirmation (AID 2382); format: functional;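 further: NIH3T3 fibroblasts with HSF1-driven luciferase reporter stressed by proteasome inhibitor MG132; luminescence from HSF1-driven luciferase expression after 8 hours of MG132 stress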
T6 sequence (P38532 whole entry): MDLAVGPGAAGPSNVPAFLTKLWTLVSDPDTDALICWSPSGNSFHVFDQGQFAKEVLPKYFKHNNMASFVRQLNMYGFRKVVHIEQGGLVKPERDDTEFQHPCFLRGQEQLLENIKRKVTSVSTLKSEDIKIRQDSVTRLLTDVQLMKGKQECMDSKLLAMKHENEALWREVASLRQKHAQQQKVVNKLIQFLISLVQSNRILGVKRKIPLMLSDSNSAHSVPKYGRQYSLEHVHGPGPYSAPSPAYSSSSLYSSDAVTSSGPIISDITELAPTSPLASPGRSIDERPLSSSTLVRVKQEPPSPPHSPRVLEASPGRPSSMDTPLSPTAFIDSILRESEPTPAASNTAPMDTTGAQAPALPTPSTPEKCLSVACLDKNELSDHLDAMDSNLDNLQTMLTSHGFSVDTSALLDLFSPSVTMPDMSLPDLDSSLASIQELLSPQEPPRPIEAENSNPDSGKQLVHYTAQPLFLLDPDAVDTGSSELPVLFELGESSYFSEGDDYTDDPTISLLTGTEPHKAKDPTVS

[10] = molecular target: T6, Heat shock factor protein 1; assay: enhancement of HSF1-driven luciferase signal – cell-based, NIH3T3, luminescence, dose retest, confirmation (AID 435004); format: functional;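 further: stress induced by proteasome inhibitor MG132 added 30 min after compound; luciferase reporter driven by HSF1 response element in NIH3T3 cells; actives raise luminescence as potentiators of the MG132 stress response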
[11] = viability of uninfected HEp-2 cells – cell-based, HTS, cytotoxicity control for RSV inhibitor project, dose response (AID 2410); format: functional; conditions: human respiratory syncytial virus

Chain of Cytochrome P450 2C9 (P11712 whole entry): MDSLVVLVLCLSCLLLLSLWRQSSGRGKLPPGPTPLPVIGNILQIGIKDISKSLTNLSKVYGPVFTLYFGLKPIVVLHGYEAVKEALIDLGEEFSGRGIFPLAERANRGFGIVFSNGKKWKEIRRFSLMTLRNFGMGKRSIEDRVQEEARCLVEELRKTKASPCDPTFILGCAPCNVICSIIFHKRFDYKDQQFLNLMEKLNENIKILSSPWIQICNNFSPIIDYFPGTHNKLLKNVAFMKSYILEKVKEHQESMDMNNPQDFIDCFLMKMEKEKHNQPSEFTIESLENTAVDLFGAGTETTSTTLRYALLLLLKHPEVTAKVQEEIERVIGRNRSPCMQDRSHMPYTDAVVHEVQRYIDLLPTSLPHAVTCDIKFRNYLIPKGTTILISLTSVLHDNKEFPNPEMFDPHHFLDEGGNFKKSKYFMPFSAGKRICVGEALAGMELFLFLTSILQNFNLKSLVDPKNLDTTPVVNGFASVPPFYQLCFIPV
Chain of Glyceraldehyde-3-phosphate dehydrogenase (P04406 whole entry): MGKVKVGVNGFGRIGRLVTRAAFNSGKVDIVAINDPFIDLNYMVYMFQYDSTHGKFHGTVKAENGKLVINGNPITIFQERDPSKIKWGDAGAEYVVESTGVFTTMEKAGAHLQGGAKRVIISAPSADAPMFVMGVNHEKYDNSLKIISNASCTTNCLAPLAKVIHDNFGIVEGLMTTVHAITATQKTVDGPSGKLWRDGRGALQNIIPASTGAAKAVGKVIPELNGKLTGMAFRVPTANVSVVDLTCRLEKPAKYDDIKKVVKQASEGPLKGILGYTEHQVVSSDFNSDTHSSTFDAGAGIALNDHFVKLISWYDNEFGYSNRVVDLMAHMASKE
Chain of Trypsin (P00761 whole entry): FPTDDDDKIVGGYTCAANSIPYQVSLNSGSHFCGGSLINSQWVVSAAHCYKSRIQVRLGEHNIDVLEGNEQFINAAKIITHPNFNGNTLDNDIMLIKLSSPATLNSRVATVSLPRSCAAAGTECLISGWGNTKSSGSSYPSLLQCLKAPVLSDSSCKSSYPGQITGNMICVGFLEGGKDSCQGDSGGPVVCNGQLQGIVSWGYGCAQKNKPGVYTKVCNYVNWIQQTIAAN
Chain of Estrogen receptor beta (Q92731 whole entry): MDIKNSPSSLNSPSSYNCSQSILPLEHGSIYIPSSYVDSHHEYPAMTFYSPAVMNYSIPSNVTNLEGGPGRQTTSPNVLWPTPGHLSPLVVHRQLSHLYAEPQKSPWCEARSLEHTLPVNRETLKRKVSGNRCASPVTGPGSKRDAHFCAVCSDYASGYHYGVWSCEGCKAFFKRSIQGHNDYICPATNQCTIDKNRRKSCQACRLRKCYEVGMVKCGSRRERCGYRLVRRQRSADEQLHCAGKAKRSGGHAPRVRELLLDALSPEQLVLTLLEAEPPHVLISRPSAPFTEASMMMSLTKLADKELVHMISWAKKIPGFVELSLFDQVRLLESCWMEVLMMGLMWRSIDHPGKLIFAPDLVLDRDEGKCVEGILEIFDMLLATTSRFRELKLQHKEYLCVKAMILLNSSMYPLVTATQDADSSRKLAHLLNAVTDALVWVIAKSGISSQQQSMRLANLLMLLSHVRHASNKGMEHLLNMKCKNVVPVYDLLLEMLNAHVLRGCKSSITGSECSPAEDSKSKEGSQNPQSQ
Chain of Paired box protein Pax-8 (Q06710 whole entry): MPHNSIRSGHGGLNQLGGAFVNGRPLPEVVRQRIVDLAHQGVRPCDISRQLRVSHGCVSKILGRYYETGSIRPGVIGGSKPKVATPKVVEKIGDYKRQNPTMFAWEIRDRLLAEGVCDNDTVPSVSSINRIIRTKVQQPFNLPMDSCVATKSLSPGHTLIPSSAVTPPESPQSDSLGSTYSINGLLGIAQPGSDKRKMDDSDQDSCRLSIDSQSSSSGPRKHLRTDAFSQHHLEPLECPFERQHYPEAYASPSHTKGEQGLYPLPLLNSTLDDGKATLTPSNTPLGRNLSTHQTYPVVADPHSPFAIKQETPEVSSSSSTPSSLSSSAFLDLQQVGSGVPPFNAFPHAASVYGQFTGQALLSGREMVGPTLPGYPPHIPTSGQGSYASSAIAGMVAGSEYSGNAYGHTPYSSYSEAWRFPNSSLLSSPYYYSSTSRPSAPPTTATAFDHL

Cc1cc(-c2nc3ccccc3s2)ccc1N
EC50 [1]: > 67.6 µM (inactive)
IC50 [2]: > 67.6 µM (inactive)
EC50 [3]: > 67.6 µM (inactive)
EC50 (cells): > 67.6 µM (inactive)

O=C(O)COc1ccc(/C=N/n2c(COc3ccccc3)nc3ccccc3c2=O)cc1
IC50 (Aminopeptidase N): 8.94 µM (active)

COc1ccc(-c2[nH]nc3c2C2(C(=O)N(CC(=O)O)c4ccccc42)C(C#N)=C(N)O3)cc1OC (centres undefined)
IC50 (Aminopeptidase N): 43.3 µM (active)

O=C(CNC(=O)c1cccs1)OCC(=O)c1ccc(Cl)cc1
EC50 [1]: > 67.5 µM (inactive)
IC50 [2]: > 67.5 µM (inactive)

CC(C)C[C@@H](CC(=O)N[C@@H](CCC(=O)O)CC(=O)O)NC(=O)[C@@H]1CCCC[C@H]1NC(=O)C[C@@H](NC(=O)C[C@H](CO)NC(=O)[C@@H]1CNCC[C@H]1N)C(C)C
AC50 (Cytochrome P450 2C9): 31.6 µM (inconclusive)

CC(C)C[C@@H](CC(=O)N[C@@H](CCCN)CC(=O)N[C@@H]1CCNC[C@H]1C(=O)N[C@H](CC(=O)N[C@@H](CCC(=O)O)CC(=O)O)CC(C)C)NC(=O)[C@@H]1CNCC[C@H]1N
AC50 (Cytochrome P450 2C9): 39.8 µM (inconclusive)

Cc1cc2nn(-c3cccc4ccccc34)nc2cc1NC(=O)c1cccs1
AC50 (Trypsin): 8.06 µM (active)

O=C(Cc1cccs1)Nc1ccccn1
IC50 (Estrogen receptor beta): 16.8 µM (active)
IC50 (Estrogen receptor): 13.4 µM (active)

Cc1nc(-c2cccnc2)c[nH]1
IC50 [4]: > 100 µM (inactive)
IC50 [5]: > 100 µM (not active)

Cc1cccc(NCc2ccc(O)c3ncccc23)c1C
AC50 (Paired box protein Pax-8): 15 µM (active)
IC50 [6]: > 50 µM (not active)
EC50 [7]: > 38 µM (not active)
EC50 [8]: > 150 µM (inactive)
EC50 [9]: > 195 µM (not active)

CC(C)C[C@@H](CC(=O)N[C@H](CC(=O)N[C@@H]1CCCC[C@H]1C(=O)N[C@H](CC(=O)N[C@@H](CCC(=O)O)CC(=O)O)Cc1ccccc1)C(C)C)NC(=O)[C@@H]1CNCC[C@H]1N
AC50 (Cytochrome P450 2C9): 31.6 µM (inconclusive)

Cc1ccc(S(=O)(=O)NNC(=O)c2sc3nc(C)cc(C)c3c2-n2cccc2)cc1
IC50 (Aminopeptidase N): 26.9 µM (active)
EC50 [10]: > 260 µM (inactive)

Cn1cccc1C(=O)OCc1csc(-c2ccccc2)n1
EC50 [1]: > 67.5 µM (inactive)
IC50 [2]: > 67.5 µM (inactive)
EC50 [3]: > 67.5 µM (inactive)
EC50 (cells): > 67.5 µM (inactive)

CC(C)C/N=C/c1c(O)c([N+](=O)[O-])cc2oc3c(c12)CCCC3
IC50 [6]: > 50 µM (not active)
CC50 [11]: 25.3 µM (active)

Cc1ccc2[nH]c(-c3sc4nc(C)ccc4c3N)nc2c1
IC50 [2]: > 67.6 µM (inactive)
EC50 [3]: > 67.5 µM (inactive)
EC50 (cells): > 67.5 µM (inactive)

Cc1ccc(-c2ccc(C(=O)O)[nH]2)cc1
IC50 [4]: > 100 µM (inactive)
IC50 [5]: > 100 µM (not active)
